For one experiment, the target named is T1, PRKG2 (Homo sapiens, UniProt Q13237).
T1 construct: purchased DiscoverX (KINOMEscan)
T1 sequence (Q13237 1-762): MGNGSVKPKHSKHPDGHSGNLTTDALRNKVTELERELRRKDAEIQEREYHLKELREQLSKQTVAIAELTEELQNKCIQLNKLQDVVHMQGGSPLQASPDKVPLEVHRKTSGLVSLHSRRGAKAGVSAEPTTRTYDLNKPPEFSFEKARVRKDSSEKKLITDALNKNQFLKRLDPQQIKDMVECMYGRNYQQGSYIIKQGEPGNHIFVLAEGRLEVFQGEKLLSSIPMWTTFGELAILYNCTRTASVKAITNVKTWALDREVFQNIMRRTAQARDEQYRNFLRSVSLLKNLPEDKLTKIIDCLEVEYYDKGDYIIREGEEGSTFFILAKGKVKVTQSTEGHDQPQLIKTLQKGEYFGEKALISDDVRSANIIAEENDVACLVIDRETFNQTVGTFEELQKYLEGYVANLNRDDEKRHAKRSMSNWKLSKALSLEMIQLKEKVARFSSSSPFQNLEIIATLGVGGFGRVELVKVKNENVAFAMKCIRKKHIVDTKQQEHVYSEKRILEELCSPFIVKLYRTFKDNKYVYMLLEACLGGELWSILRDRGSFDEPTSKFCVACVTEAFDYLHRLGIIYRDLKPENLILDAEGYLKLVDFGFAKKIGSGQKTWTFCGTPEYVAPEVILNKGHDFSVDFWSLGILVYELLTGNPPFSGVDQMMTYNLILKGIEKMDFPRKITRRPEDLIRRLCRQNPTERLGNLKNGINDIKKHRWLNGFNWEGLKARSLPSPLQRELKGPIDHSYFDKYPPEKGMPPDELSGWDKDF
Put plainly: Kinome scan profile. It counts as binding. As to conditions: 10 μM.

The next experiment has as its system HepG2 cells. Put plainly: HepG2 cytotoxicity assay (AlamarBlue). As to conditions: HepG2 cells, 72 h, AlamarBlue, up to 46 µM. In kind it is cell-based, human. As for the experimental part:
(§1) Asexual parasites of P. falciparum strain NF54 were cultured as described previously. Briefly, parasites were maintained in RPMI 1640 medium containing 10% positive human serum + erythrocytes (5% haematocrit), 2.5% sodium bicarbonate and 11 µg/mL gentamicin at 37 °C with 5% CO2, 5% O2 and 90% N2. Gametocyte cultures were set up at 0.1% parasitaemia and on days 9–10 treated with 50 mM N-acetylglucosamine (NAG) to block further asexual growth. Stage III–V gametocytes were isolated by Percoll density gradient centrifugation on day 12 and returned to culture for 24 h before being used in the assay. At the time of the assay over 73% of the gametocytes were stage IV or V (Additional file 1). HepG2 cells (ATCC, cat. no. 77400) were cultured in 175-cm^2 tissue culture flasks with 30 ml growth medium at 37 °C in a 5% CO2 and 5% O2 humidified atmosphere. Growth medium was made with Dulbecco’s Modified Eagle Medium with 10% fetal bovine serum (FBS). Growth medium was replaced every other day and cells were passaged at 75% confluence.
Drug activity on HepG2 was tested using an AlamarBlue assay as previously described. Briefly, 5 μL/well of HepG2 cells were dispensed with a seeding density of 1000 cells/well using the Multidrop Combi. 23 nL compound was transferred using the NX-TR Pintool. After 72 h incubation under the standard culture condition, 5 μL/well of 2X AlamarBlue dye was added to the cells, the plates were incubated for 2 h at 37 °C with 5% CO2 and then were read in a fluorescence detection mode (Ex = 525 nm, Em = 598 nm) on a ViewLux plate reader.
A general note: The colour change of resazurin is a common sign of viable cells or microbes.

A further experiment addresses T2, KIT(A829P) (Homo sapiens, UniProt P10721, A829P).
T2 construct: purchased DiscoverX (KINOMEscan)
The experiment can be described thus: Kinome scan profile. It counts as binding. As to conditions: 10 μM.

A further experiment addresses T3, ALK(C1156Y) (Homo sapiens, UniProt Q9UM73, C1156Y).
T3 construct: purchased DiscoverX (KINOMEscan)
The experiment can be described thus: Kinome scan profile. In kind it is binding. As to conditions: 10 μM.

In the next experiment the target is T4, MYLK (Homo sapiens, UniProt Q15746).
T4 construct: purchased DiscoverX (KINOMEscan)
Put plainly: Kinome scan profile. It counts as binding. As to conditions: 10 μM.

In experiment [1] the test system is P. falciparum NF54 gametocytes. The experiment can be described thus: gametocyte viability assay (AlamarBlue). It counts as cell-based, Plasmodium falciparum. On the procedure: as §1
Compounds from the Sytravon library (a retired Pharma screening collection that contains a diversity of novel small molecules, with an emphasis on medicinal chemistry-tractable scaffolds) were obtained as powder samples and dissolved in DMSO as […] stock solutions. Compound screening experiments were performed as previously described. In the primary screen, two concentrations for each compound were tested. No technical and biological replicates were involved. In the follow-up confirmation studies, three biological replicates were tested for each compound in both parasite assays. The positive control was 46 µM of Torin 2 and negative control was DMSO. Briefly, 2.5 μL/well incomplete medium was dispensed into each well of 1536-well plates using the Multidrop Combi followed by 23 nL compound transferring using the NX-TR Pintool (WAKO Scientific Solutions, San Diego, CA). Then, 2.5 μL/well of gametocytes was dispensed with a seeding density of 20,000 cells/well using the Multidrop Combi. The assay plates were incubated for 72 h at 37 °C with 5% CO2. After addition of 5 μL/well of 2X AlamarBlue dye (Life Technologies, cat. no. DAL1100), the plates were incubated for 24 h at 37 °C with 5% CO2 and then were read in a fluorescence detection mode (Ex = 525 nm, Em = 598 nm) on a ViewLux plate reader (PerkinElmer).

The next experiment addresses T5, CDK4-cyclinD3 (Homo sapiens, UniProt P11802).
T5 construct: purchased DiscoverX (KINOMEscan)
Put plainly: Kinome scan profile. As to conditions: 10 μM. It counts as binding.

Each structure is given as a SMILES string. Several values for one entry are separate records, joined by “and”; a condition that tells them apart may be missing. Equal values may be shown once.

T3 sequence (Q9UM73 19-1620 C1156Y): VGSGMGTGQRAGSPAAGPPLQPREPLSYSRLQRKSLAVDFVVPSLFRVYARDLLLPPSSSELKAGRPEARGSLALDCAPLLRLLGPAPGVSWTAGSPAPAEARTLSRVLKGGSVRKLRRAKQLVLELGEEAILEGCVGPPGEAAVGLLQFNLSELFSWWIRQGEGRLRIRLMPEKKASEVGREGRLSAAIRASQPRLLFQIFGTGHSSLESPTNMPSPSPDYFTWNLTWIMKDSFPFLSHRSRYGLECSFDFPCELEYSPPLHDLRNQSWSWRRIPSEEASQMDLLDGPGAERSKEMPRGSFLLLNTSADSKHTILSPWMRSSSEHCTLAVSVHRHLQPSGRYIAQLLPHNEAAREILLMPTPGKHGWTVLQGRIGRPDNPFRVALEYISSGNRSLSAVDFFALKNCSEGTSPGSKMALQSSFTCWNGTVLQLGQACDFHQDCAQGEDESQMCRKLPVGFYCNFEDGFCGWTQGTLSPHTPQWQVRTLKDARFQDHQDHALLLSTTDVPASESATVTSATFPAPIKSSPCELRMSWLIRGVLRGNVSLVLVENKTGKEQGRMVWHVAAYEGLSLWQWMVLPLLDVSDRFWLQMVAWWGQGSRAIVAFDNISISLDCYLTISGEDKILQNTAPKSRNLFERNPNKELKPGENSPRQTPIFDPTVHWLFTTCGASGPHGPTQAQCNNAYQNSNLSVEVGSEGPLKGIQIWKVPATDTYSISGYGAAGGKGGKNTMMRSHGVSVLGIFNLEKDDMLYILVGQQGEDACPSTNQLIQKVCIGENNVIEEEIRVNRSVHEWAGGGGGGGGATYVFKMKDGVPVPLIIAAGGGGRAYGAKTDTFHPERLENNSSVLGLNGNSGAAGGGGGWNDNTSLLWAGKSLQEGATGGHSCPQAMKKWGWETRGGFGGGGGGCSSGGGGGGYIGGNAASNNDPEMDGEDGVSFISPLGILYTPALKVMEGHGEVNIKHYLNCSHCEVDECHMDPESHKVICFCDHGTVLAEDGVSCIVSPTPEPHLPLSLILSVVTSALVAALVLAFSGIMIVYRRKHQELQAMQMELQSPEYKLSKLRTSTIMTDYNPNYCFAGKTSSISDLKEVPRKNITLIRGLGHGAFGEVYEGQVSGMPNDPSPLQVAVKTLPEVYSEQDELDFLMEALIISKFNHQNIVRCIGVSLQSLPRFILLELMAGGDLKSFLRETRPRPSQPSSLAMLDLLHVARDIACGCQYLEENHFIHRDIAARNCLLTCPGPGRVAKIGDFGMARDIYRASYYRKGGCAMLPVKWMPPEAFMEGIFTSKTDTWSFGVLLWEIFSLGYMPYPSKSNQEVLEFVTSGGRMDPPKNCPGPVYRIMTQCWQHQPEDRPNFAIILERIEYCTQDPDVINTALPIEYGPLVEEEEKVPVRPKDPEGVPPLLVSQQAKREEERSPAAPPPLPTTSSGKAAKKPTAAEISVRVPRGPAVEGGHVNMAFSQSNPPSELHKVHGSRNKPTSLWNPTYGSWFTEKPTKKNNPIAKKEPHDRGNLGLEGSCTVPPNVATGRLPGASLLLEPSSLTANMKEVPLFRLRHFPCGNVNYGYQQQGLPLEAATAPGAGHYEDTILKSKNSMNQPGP
T5 sequence (P11802 whole entry): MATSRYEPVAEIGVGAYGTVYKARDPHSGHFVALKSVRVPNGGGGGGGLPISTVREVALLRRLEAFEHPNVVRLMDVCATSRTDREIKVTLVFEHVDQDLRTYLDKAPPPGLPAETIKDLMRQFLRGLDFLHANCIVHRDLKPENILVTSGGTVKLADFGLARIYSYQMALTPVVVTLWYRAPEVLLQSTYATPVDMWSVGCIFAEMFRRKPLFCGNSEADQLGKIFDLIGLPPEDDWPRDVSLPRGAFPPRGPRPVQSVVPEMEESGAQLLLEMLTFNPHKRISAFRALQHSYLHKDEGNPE
T5 sequence (P30281 whole entry partner): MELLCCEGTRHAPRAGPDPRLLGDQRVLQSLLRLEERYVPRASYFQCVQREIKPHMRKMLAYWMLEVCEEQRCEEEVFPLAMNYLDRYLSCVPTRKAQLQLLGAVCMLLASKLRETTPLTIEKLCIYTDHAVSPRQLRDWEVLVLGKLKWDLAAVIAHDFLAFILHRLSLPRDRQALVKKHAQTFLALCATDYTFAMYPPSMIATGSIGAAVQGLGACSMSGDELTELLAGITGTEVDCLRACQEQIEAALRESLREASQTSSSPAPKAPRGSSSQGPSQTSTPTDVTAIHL
T4 sequence (Q15746 whole entry): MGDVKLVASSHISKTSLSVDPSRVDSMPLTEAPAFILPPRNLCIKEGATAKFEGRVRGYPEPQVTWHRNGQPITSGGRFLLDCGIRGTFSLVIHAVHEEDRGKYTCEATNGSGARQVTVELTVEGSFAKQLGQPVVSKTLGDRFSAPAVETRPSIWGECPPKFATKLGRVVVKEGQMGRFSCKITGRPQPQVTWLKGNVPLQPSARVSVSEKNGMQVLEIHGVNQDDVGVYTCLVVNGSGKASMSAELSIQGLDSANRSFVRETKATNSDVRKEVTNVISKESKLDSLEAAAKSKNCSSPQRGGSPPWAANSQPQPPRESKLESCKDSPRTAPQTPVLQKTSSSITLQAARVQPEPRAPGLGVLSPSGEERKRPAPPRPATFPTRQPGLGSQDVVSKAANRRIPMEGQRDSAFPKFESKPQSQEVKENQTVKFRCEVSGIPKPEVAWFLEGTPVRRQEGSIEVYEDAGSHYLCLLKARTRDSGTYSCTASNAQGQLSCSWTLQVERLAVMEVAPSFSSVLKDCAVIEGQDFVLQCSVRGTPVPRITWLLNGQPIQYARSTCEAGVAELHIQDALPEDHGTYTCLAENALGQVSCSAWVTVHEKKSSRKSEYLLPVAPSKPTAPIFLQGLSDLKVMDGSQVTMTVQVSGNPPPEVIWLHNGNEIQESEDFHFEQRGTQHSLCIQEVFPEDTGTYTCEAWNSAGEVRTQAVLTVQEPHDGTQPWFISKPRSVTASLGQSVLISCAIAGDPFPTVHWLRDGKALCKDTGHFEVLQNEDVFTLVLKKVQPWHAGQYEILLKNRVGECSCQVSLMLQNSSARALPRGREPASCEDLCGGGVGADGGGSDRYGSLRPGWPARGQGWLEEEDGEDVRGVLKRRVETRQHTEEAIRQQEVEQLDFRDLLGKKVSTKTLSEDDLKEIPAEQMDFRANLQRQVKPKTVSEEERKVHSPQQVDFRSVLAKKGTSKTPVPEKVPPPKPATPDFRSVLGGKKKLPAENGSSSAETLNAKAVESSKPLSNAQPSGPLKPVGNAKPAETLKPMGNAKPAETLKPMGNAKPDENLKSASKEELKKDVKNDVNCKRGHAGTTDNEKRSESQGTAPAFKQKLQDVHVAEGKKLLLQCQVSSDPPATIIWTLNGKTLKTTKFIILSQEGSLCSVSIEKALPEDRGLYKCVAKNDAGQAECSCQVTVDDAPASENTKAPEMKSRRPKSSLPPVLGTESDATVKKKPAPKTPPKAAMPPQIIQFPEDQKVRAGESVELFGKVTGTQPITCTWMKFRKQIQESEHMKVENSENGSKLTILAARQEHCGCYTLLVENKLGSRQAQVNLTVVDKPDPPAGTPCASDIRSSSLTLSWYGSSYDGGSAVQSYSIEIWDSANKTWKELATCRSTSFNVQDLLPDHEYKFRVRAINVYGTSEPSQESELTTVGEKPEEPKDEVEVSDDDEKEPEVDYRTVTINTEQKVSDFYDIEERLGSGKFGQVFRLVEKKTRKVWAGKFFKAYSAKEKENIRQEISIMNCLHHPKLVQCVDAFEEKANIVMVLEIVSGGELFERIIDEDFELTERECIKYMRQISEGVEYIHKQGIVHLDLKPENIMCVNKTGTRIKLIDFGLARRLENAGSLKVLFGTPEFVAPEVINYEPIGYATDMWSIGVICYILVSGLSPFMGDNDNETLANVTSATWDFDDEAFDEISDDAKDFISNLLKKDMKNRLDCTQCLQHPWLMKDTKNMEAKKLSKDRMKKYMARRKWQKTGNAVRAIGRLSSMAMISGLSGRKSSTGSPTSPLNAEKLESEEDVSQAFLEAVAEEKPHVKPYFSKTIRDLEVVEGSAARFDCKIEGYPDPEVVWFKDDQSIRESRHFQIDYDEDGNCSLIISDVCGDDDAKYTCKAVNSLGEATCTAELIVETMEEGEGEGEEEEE
T2 sequence (P10721 26-976 A829P): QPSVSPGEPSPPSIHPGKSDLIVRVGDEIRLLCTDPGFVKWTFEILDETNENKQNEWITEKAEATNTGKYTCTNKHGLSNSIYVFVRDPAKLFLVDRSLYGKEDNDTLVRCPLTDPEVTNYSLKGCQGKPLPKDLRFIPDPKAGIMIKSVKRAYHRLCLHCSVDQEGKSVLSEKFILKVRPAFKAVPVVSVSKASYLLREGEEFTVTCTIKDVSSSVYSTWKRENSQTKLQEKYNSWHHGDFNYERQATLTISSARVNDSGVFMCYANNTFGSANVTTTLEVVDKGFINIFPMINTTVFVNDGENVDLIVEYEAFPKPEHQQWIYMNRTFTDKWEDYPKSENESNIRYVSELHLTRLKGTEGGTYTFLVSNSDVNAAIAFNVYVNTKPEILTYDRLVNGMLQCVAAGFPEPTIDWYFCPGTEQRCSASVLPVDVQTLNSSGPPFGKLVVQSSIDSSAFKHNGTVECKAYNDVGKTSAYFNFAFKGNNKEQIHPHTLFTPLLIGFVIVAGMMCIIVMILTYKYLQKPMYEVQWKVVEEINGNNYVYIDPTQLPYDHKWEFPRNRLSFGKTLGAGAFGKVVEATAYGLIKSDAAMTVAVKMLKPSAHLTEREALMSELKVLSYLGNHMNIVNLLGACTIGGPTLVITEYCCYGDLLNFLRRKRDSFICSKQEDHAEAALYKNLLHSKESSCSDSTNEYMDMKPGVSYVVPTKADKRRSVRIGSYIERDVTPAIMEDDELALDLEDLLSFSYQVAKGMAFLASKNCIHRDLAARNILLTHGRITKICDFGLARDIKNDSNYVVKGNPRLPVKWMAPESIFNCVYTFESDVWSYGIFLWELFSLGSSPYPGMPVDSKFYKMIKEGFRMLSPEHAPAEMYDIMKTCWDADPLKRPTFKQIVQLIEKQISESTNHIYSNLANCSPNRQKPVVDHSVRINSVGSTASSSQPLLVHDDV

In general, IC50 refers to the point on the concentration scale where inhibition reaches its midpoint. The low end stands for inhibition by little substance, the high end for a need for much substance. Regarding `CCN1CCN(Cc2c(O)ccc3c(=O)c(Oc4ccccc4C(C)C)c(C(F)(F)F)oc23)CC1` [NCGC00100599], the “% Control, PRKG2” value on PRKG2 was 32 % Control. In the experiment with HepG2 cells, the “HepG2, IC50 (dash = less than 25% cytotoxicity)” value is “– (Indicates compounds with less than 25% cytotoxicity at up to 46 µM)”. In addition, at KIT(A829P), the “% Control, KIT(A829P)” value is given as 34 % Control. In addition, the “% Control, ALK(C1156Y)” value on ALK(C1156Y) is recorded as 28 % Control. Besides, the “% Control, MYLK” value on MYLK came to 31 % Control. Besides, the IC50 in experiment [1] (P. falciparum NF54 stage III-V gametocytes, 72 h, AlamarBlue, mean ± SD, n = 3) is 4.18 µM and 4.34 µM. Further, in experiment [1] (ratio of asexual IC50 to gametocyte IC50), the Asexual/Gametocyte is given as 0.08. Also, the “% Control, CDK4-cyclinD3” value on CDK4-cyclinD3 was 15 % Control.
